The record followed here is ChEMBL document CHEMBL3286268, “Green synthesis and anti-inflammatory studies of a series of 1,1-bis(heteroaryl)alkane derivatives” (Eur J Med Chem, 2014).

The structures appear in SMILES notation.

The test system of data set [1] is RAW264.7. Description: Antiinflammatory activity in mouse RAW264.7 cells assessed as inhibition of LPS-induced nitrite production at 50 uM after 22 hrs by Griess method relative to LPS-treated control. Type of data set: functional. The note with it: RAW264.7, 22 h. (The Griess reaction detects nitrite, a stable product of nitric oxide.)
The nature of data set [2]: Cytotoxicity against mouse RAW264.7 cells assessed as cell viability at 50 uM after 22 hrs by MTT assay relative to control. The note with it: read-out: Activity. Type of data set: cell-based.
The subject of data set [3] is RAW264.7. As to the kind of experiment: Antiinflammatory activity in mouse RAW264.7 cells assessed as inhibition of LPS-induced nitrite production after 22 hrs by Griess method. It counts as functional, cell-based. The note with it: RAW264.7, 22 h.

One may read the inhibition as the share of the control response that was lost under treatment. `c1ccc(C(c2ccc[nH]2)c2ccc[nH]2)cc1`: the inhibition at 50 µM in the data set on RAW264.7 [1] stood at 2.1%. Moreover, the viability at 22 h, 50 µM in data set [2] was 100%.

With `Cc1ccc(C(c2ccccc2)c2ccc(C)o2)o1`, in the data set on RAW264.7 [1], the inhibition at 50 µM is 33.4%. Moreover, the viability at 22 h, 50 µM in data set [2] stood at 99.3%.

Usually IC50 stands for the concentration that gives 50% inhibition. For the compound `Cc1ccc(C(c2ccc(F)cc2)c2ccc(C)o2)o1`, the IC50 with RAW264.7 [3] turned out to be 44.8 µM. The inhibition at 50 µM in the data set with RAW264.7 [1] came to 64.2%. Also, the viability at 22 h, 50 µM in data set [2] worked out at 97.8%.

Regarding `Cc1ccc(C(c2ccc(Cl)cc2)c2ccc(C)o2)o1`, the IC50 with RAW264.7 [3] was 50.7 µM. In addition, the inhibition at 50 µM with RAW264.7 [1] amounted to 39.5%. In addition, the viability at 22 h, 50 µM in data set [2] was 101%.

Take `Cc1ccc(C(c2ccc(Br)cc2)c2ccc(C)o2)o1`: in the data set with RAW264.7 [1], the inhibition at 50 µM amounted to 24.9%. In data set [2], the viability at 22 h, 50 µM amounted to 101%.

With `Cc1ccc(C(c2ccc([N+](=O)[O-])cc2)c2ccc(C)o2)o1`, in the data set on RAW264.7 [3], the IC50 turned out to be 42.4 µM. In the data set with RAW264.7 [1], the inhibition at 50 µM stood at 73.2%. For the same compound, the viability at 22 h, 50 µM in data set [2] came to 96.3%.

For `COc1ccc(C(c2ccc(C)o2)c2ccc(C)o2)cc1`, the inhibition at 50 µM with RAW264.7 [1] turned out to be 34.6%. Besides, in data set [2], the viability at 22 h, 50 µM was 97.8%.

As to `COc1cc(C(c2ccc(C)o2)c2ccc(C)o2)ccc1O`, the IC50 in the data set on RAW264.7 [3] stood at 44 µM. In addition, the inhibition at 50 µM in the data set on RAW264.7 [1] worked out at 63.7%. Moreover, the viability at 22 h, 50 µM in data set [2] is 98.2%.

As for `CCC(c1ccc(C)o1)c1ccc(C)o1`, in the data set on RAW264.7 [1], the inhibition at 50 µM was 30.9%. Moreover, the viability at 22 h, 50 µM in data set [2] amounted to 101%.

In the case of `CCCCC(c1ccc(C)o1)c1ccc(C)o1`, the inhibition at 50 µM in the data set on RAW264.7 [1] amounted to 31.7%. Also, the viability at 22 h, 50 µM in data set [2] worked out at 100%.

For `Cc1ccc(C(CCc2ccccc2)c2ccc(C)o2)o1`, the IC50 with RAW264.7 [3] was determined as 60.8 µM. In addition, in the data set with RAW264.7 [1], the inhibition at 50 µM was found to be 46.8%. Besides, the viability at 22 h, 50 µM in data set [2] worked out at 100%.

With `Cc1ccc(C(CC(C)C)c2ccc(C)o2)o1`, in the data set with RAW264.7 [1], the inhibition at 50 µM was 21.4%. Also, in data set [2], the viability at 22 h, 50 µM amounted to 101%.

`CCC(CC)C(c1ccc(C)o1)c1ccc(C)o1`: the inhibition at 50 µM in the data set with RAW264.7 [1] is 26.6%. The viability at 22 h, 50 µM in data set [2] was found to be 101%.

As for `Cc1ccc(C(c2ccc(C)o2)C2CCCCC2)o1`, the inhibition at 50 µM in the data set on RAW264.7 [1] came out at 36.9%. The viability at 22 h, 50 µM in data set [2] is 102%.

`CCc1ccc(C(c2ccccc2)c2ccc(CC)o2)o1`: the IC50 in the data set with RAW264.7 [3] was found to be 70.5 µM. Also, the inhibition at 50 µM in the data set on RAW264.7 [1] came to 41.5%. Also, the viability at 22 h, 50 µM in data set [2] came to 101%.

On to `CCc1ccc(C(c2ccc([N+](=O)[O-])cc2)c2ccc(CC)o2)o1`, for which the IC50 in the data set with RAW264.7 [3] worked out at 41.1 µM. Further, in the data set with RAW264.7 [1], the inhibition at 50 µM was 63.3%. The viability at 22 h, 50 µM in data set [2] was 101%.

Turning to `O=[N+]([O-])c1ccc(C(c2ccc[nH]2)c2ccc[nH]2)cc1`, the inhibition at 50 µM with RAW264.7 [1] is 26.9%. For the same compound, the viability at 22 h, 50 µM in data set [2] amounted to 95.8%.

Take `CCc1ccc(C(c2ccc([N+](=O)[O-])cc2)c2ccc(CC)[nH]2)[nH]1`: the half-maximal inhibitory concentration (IC50) in the data set with RAW264.7 [3] is 56.9 µM. The inhibition at 50 µM with RAW264.7 [1] stood at 50.7%. Besides, the viability at 22 h, 50 µM in data set [2] was determined as 99.2%.

With `CCc1ccc(C(CCc2ccccc2)c2ccc(CC)o2)o1`, in the data set on RAW264.7 [3], the IC50 came to 74.2 µM. The inhibition at 50 µM with RAW264.7 [1] worked out at 39.4%. Further, the viability at 22 h, 50 µM in data set [2] was determined as 101%.

With `Cc1ccc(C(CCc2ccccc2)c2ccc(C)s2)s1`, the inhibition at 50 µM in the data set with RAW264.7 [1] was determined as 21.5%. Further, in data set [2], the viability at 22 h, 50 µM turned out to be 103%.

On to `N=C(N)NN` [PIMAGEDINE], for which, in the data set on RAW264.7 [3], the IC50 worked out at 43.3 µM. For the same compound, in the data set with RAW264.7 [1], the inhibition at 50 µM is 70.2%. In addition, in data set [2], the viability at 22 h, 50 µM came out at 100%.
